# Assay results published in ChEMBL document CHEMBL2401728, “An unexpected Dimroth rearrangement leading to annelated thieno[3,2-d][1,2,3]triazolo[1,5-a]pyrimidines with potent antitumor activity” (Eur J Med Chem, 2013).
# How the values were obtained:
# Format in all cases: functional
# [1] = tested on: Hs-578T; test: Cytotoxicity against human Hs578T cells assessed as cellular growth at 0.01 uM after 48 hrs by SRB assay relative to control
# [2] = tested on: A549; test: Cytotoxicity against human A549 cells assessed as cellular growth at 0.1 uM after 48 hrs by SRB assay relative to control
# [3] = tested on: OVCAR-5; test: Cytotoxicity against human OVCAR5 cells assessed as cellular growth at 100 uM after 48 hrs by SRB assay relative to control
# [4] = tested on: RXF 393; test: Cytotoxicity against human RXF393 cells assessed as cellular growth at 100 uM after 48 hrs by SRB assay relative to control
# [5] = Cytotoxicity against human NCI-ADR-RES cells assessed as cellular growth at 0.01 uM after 48 hrs by SRB assay relative to control
# [6] = tested on: UACC-257; test: Cytotoxicity against human UACC257 cells assessed as cellular growth at 0.01 uM after 48 hrs by SRB assay relative to control
# [7] = tested on: IGROV-1; test: Cytotoxicity against human IGROV1 cells assessed as cellular growth at 1 uM after 48 hrs by SRB assay relative to control
# [8] = tested on: SF-295; test: Cytotoxicity against human SF295 cells assessed as cellular growth at 0.1 uM after 48 hrs by SRB assay relative to control
# [9] = tested on: UACC-257; test: Cytotoxicity against human UACC257 cells assessed as cellular growth at 0.1 uM after 48 hrs by SRB assay relative to control
# [10] = tested on: ACHN; test: Cytotoxicity against human ACHN cells assessed as cellular growth at 0.1 uM after 48 hrs by SRB assay relative to control
# [11] = tested on: MDA-MB-435; test: Cytotoxicity against human MDA-MB-435 cells assessed as cellular growth at 1 uM after 48 hrs by SRB assay relative to control
# [12] = tested on: A498; test: Cytotoxicity against human A498 cells assessed as cellular growth at 0.1 uM after 48 hrs by SRB assay relative to control
# [13] = tested on: Hs-578T; test: Cytotoxicity against human Hs578T cells assessed as cellular growth at 10 uM after 48 hrs by SRB assay relative to control
# [14] = tested on: Hs-578T; test: Cytotoxicity against human Hs578T cells assessed as cellular growth at 0.1 uM after 48 hrs by SRB assay relative to control
# [15] = tested on: LOX IMVI; test: Cytotoxicity against human LOXIMVI cells assessed as cellular growth at 1 uM after 48 hrs by SRB assay relative to control
# [16] = tested on: 786-0; test: Cytotoxicity against human 786-0 cells assessed as cellular growth at 100 uM after 48 hrs by SRB assay relative to control
# [17] = tested on: OVCAR-8; test: Cytotoxicity against human OVCAR8 cells assessed as cellular growth at 100 uM after 48 hrs by SRB assay relative to control
# [18] = tested on: OVCAR-8; test: Cytotoxicity against human OVCAR8 cells after 48 hrs by SRB assay; settings: OVCAR-8, 48 h
# [19] = tested on: SN12C; test: Cytotoxicity against human SN12C cells after 48 hrs by SRB assay
# [20] = tested on: SNB-19; test: Cytotoxicity against human SNB19 cells assessed as cellular growth at 100 uM after 48 hrs by SRB assay relative to control
# [21] = tested on: SR; test: Cytotoxicity against human SR cells assessed as cellular growth at 100 uM after 48 hrs by SRB assay relative to control
# [22] = tested on: HOP-62; test: Cytotoxicity against human HOP62 cells after 48 hrs by SRB assay; settings: HOP-62, 48 h
# [23] = tested on: SF-295; test: Cytotoxicity against human SF295 cells assessed as cellular growth at 0.01 uM after 48 hrs by SRB assay relative to control
# [24] = tested on: NCI-H522; test: Cytotoxicity against human NCI-H522 cells assessed as cellular growth at 0.01 uM after 48 hrs by SRB assay relative to control
# [25] = tested on: HOP-92; test: Cytotoxicity against human HOP92 cells assessed as cellular growth at 0.01 uM after 48 hrs by SRB assay relative to control
# [26] = tested on: CCRF-CEM; test: Cytotoxicity against human CCRF-CEM cells assessed as cellular growth at 0.1 uM after 48 hrs by SRB assay relative to control
# [27] = tested on: DU-145; test: Cytotoxicity against human DU145 cells assessed as cellular growth at 0.01 uM after 48 hrs by SRB assay relative to control
# [28] = tested on: UACC-62; test: Cytotoxicity against human UACC62 cells assessed as cellular growth at 1 uM after 48 hrs by SRB assay relative to control
# [29] = tested on: OVCAR-3; test: Cytotoxicity against human OVCAR3 cells assessed as cellular growth at 0.01 uM after 48 hrs by SRB assay relative to control
# [30] = tested on: A498; test: Cytotoxicity against human A498 cells after 48 hrs by SRB assay; settings: A498, 48 h
# [31] = tested on: NCI-H226; test: Cytotoxicity against human NCI-H226 cells assessed as cellular growth at 0.1 uM after 48 hrs by SRB assay relative to control
# [32] = tested on: RXF 393; test: Cytotoxicity against human RXF393 cells assessed as cellular growth at 1 uM after 48 hrs by SRB assay relative to control
# [33] = tested on: HCT-15; test: Cytotoxicity against human HCT15 cells assessed as cellular growth at 1 uM after 48 hrs by SRB assay relative to control
# [34] = tested on: BT-549; test: Cytotoxicity against human BT549 cells assessed as cellular growth at 0.1 uM after 48 hrs by SRB assay relative to control
# [35] = tested on: SW-620; test: Cytotoxicity against human SW620 cells after 48 hrs by SRB assay; settings: SW-620, 48 h
# [36] = tested on: SW-620; test: Cytotoxicity against human SW620 cells assessed as cellular growth at 0.1 uM after 48 hrs by SRB assay relative to control
# [37] = tested on: ACHN; test: Cytotoxicity against human ACHN cells assessed as cellular growth at 1 uM after 48 hrs by SRB assay relative to control
# [38] = tested on: M14; test: Cytotoxicity against human M14 cells after 48 hrs by SRB assay; settings: M14, 48 h
# [39] = read-out: LC50 (the source's name)
# [40] = read-out: pLC50 (the source's name) (converted)
structure (smiles),measurement,setting,value
CN1CCN(CCCn2c3c(sc4ncccc43)c(=O)n3nnc(-c4ccccc4)c23)CC1,Activity,[1],95%
same,Activity,[2],95%
same,Activity,[3],-44%
same,Activity,[4],-83%
same,Activity,[5],96%
same,Activity,[6],94%
same,Activity,[7],94%
same,Activity,[8],94%
same,Activity,[9],99%
same,Activity,[10],91%
same,Activity,[11],99%
same,Activity,[12],81%
same,Activity,[13],69%
same,Activity,[14],93%
same,Activity,[15],86%
same,Activity,[16],-58%
same,Activity,[17],-15%
same,GI50,[18]; read-out: GI50,1.93 µM
same,CC50,[18]; [39],> 100 µM
same,TGI,[18]; read-out: TGI,4.49 µM
same,GI50,[18]; read-out: pGI50 (converted),1.95 µM
same,CC50,[18]; read-out: pLC50 (converted),> 100 µM
same,TGI,[18]; read-out: pTGI (converted),4.47 µM
same,GI50,[19]; read-out: GI50,1.81 µM
same,TGI,[19]; read-out: TGI,4.07 µM
same,GI50,[19]; read-out: pGI50 (converted),1.82 µM
same,TGI,[19]; read-out: pTGI (converted),4.07 µM
same,Activity,[20],-42%
same,Activity,[21],-42%
same,GI50,[22]; read-out: GI50,1.78 µM
same,CC50,[22]; [39],6.11 µM
same,TGI,[22]; read-out: TGI,3.3 µM
same,GI50,[22]; read-out: pGI50 (converted),1.78 µM
same,CC50,[22]; [40],6.17 µM
same,TGI,[22]; read-out: pTGI (converted),3.31 µM
same,Activity,[23],106%
same,Activity,[24],96%
same,Activity,[25],99%
same,Activity,[26],99%
same,Activity,[27],97%
same,Activity,[28],84%
same,Activity,[29],100%
same,GI50,[30]; read-out: GI50,11.2 µM
same,CC50,[30]; [39],52.3 µM
same,TGI,[30]; read-out: TGI,24.2 µM
same,GI50,[30]; read-out: pGI50 (converted),11.2 µM
same,CC50,[30]; [40],52.5 µM
same,TGI,[30]; read-out: pTGI (converted),24 µM
same,Activity,[31],80%
same,Activity,[32],93%
same,Activity,[33],89%
same,Activity,[34],98%
same,GI50,[35]; read-out: GI50,1.68 µM
same,CC50,[35]; [39],8.1 µM
same,TGI,[35]; read-out: TGI,3.69 µM
same,GI50,[35]; read-out: pGI50 (converted),1.7 µM
same,CC50,[35]; [40],8.13 µM
same,TGI,[35]; read-out: pTGI (converted),3.72 µM
same,Activity,[36],89%
same,Activity,[37],84%
same,GI50,[38]; read-out: GI50,1.87 µM
same,CC50,[38]; [39],7.16 µM
same,TGI,[38]; read-out: TGI,3.66 µM
same,GI50,[38]; read-out: pGI50 (converted),1.86 µM
same,CC50,[38]; [40],7.24 µM
same,TGI,[38]; read-out: pTGI (converted),3.63 µM
O=C(CCCn1c2c(sc3ccccc32)c(=O)n2nnc(-c3ccccc3)c12)NCCc1c[nH]cn1,Activity,[1],109%
same,Activity,[2],99%
same,Activity,[3],-80%
same,Activity,[4],-61%
same,Activity,[5],101%
same,Activity,[6],108%
same,Activity,[7],41%
same,Activity,[8],70%
same,Activity,[9],108%
same,Activity,[10],100%
same,Activity,[11],34%
same,Activity,[12],72%
same,Activity,[13],-50%
same,Activity,[14],91%
same,Activity,[15],82%
same,Activity,[16],-68%
same,Activity,[17],-40%
same,GI50,[18]; read-out: GI50,< 0.01 µM
same,CC50,[18]; [39],> 100 µM
same,TGI,[18]; read-out: TGI,2.99 µM
same,GI50,[18]; read-out: pGI50 (converted),0.01 µM
same,CC50,[18]; read-out: pLC50 (converted),> 100 µM
same,TGI,[18]; read-out: pTGI (converted),3.02 µM
same,GI50,[19]; read-out: GI50,0.011 µM
same,CC50,[19]; [39],5.51 µM
same,TGI,[19]; read-out: TGI,2.03 µM
same,GI50,[19]; read-out: pGI50 (converted),0.011 µM
same,CC50,[19]; [40],5.5 µM
same,TGI,[19]; read-out: pTGI (converted),2.04 µM
same,Activity,[20],-84%
same,Activity,[21],-100%
same,GI50,[22]; read-out: GI50,1.31 µM
same,CC50,[22]; [39],6.32 µM
same,TGI,[22]; read-out: TGI,2.87 µM
same,GI50,[22]; read-out: pGI50 (converted),1.32 µM
same,CC50,[22]; [40],6.31 µM
same,TGI,[22]; read-out: pTGI (converted),2.88 µM
same,Activity,[23],101%
same,Activity,[24],65%
same,Activity,[25],99%
same,Activity,[26],24%
same,Activity,[27],105%
same,Activity,[28],94%
same,Activity,[29],133%
same,GI50,[30]; read-out: GI50,1.09 µM
same,CC50,[30]; [39],5.61 µM
same,TGI,[30]; read-out: TGI,2.47 µM
same,GI50,[30]; read-out: pGI50 (converted),1.1 µM
same,CC50,[30]; [40],5.62 µM
same,TGI,[30]; read-out: pTGI (converted),2.45 µM
same,Activity,[31],95%
same,Activity,[32],113%
same,Activity,[33],29%
same,Activity,[34],90%
same,GI50,[35]; read-out: GI50,0.024 µM
same,CC50,[35]; [39],4.16 µM
same,TGI,[35]; read-out: TGI,1.01 µM
same,GI50,[35]; read-out: pGI50 (converted),0.024 µM
same,CC50,[35]; [40],4.17 µM
same,TGI,[35]; read-out: pTGI (converted),1 µM
same,Activity,[36],29%
same,Activity,[37],83%
same,GI50,[38]; read-out: GI50,0.327 µM
same,TGI,[38]; read-out: TGI,2.05 µM
same,GI50,[38]; read-out: pGI50 (converted),0.324 µM
same,TGI,[38]; read-out: pTGI (converted),2.04 µM
